“And” between values parts separate entries of the source, which are not always exact repeats. Equal entries are not always repeated.
How the values were obtained:
[1] = tested on: ABUTH; test: Pre-emergence herbicidal action against ABUTH; assay type: in vivo, Abutilon theophrasti; conditions: for Pre-emergence action against ABUTH (herbicidal activity): 80 g/ha, scored visually after 3 weeks vs untreated controls (100% = plants have died, 0% = like control plants); for Pre-emergence action against ABUTH (herbicidal activity in percent): dosage 20 g/ha, scored visually after 3 weeks vs untreated controls, 100% = plants have died, 0% = like control plants
Method in brief: (§1)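 Pre-emergence soil-surface spray of formulated compound (WP or EC; 600 to 800 l/ha; 0.2% wetting agent) over seeds sown in sandy loam. After 3 weeks under greenhouse conditions, damage is estimated visually in percent against untreated plants.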

[2] = tested on: ALOMY; test: Pre-emergence herbicidal action against ALOMY; assay type: in vivo, Alopecurus myosuroides; conditions: for Pre-emergence action against ALOMY (herbicidal activity): 80 g/ha, scored visually after 3 weeks vs untreated controls (100% = plants have died, 0% = like control plants)
Method in brief: as §1

[3] = tested on: AMARE; test: Pre-emergence herbicidal action against AMARE; assay type: in vivo, Amaranthus retroflexus
Method in brief: as §1

[4] = tested on: AVEFA; test: Pre-emergence herbicidal action against AVEFA; assay type: in vivo, Avena fatua; conditions: 80 g/ha, pre-emergence
Method in brief: as §1

[5] = tested on: ECHCG; test: Pre-emergence herbicidal action against ECHCG; assay type: in vivo, Echinochloa crus-galli
Method in brief: as §1

[6] = tested on: LOLRI; test: Pre-emergence herbicidal action against LOLRI; assay type: in vivo, Lolium rigidum; conditions: 80 g/ha
Method in brief: as §1

[7] = tested on: MATIN; test: Pre-emergence herbicidal action against MATIN; assay type: in vivo, Matricaria inodora
Method in brief: as §1

[8] = tested on: PHBPU; test: Pre-emergence herbicidal action against PHBPU; assay type: in vivo, Pharbitis purpurea; conditions: dosage 80 g/ha
Method in brief: as §1

[9] = tested on: POLCO; test: Pre-emergence herbicidal action against POLCO; assay type: in vivo, Polygonum convolvulus; conditions: dosage 80 g/ha
Method in brief: as §1

[10] = tested on: SETVI; test: Pre-emergence herbicidal action against SETVI; assay type: in vivo, Setaria viridis
Method in brief: as §1

[11] = tested on: VERPE; test: Pre-emergence herbicidal action against VERPE; assay type: in vivo, Veronica persica; conditions: dosage 80 g/ha
Method in brief: as §1

[12] = tested on: VIOTR; test: Pre-emergence herbicidal action against VIOTR; assay type: in vivo, Viola tricolor
Method in brief: as §1

[13] = tested on: DIGSA; test: Pre-emergence herbicidal action against DIGSA; assay type: in vivo, Digitaria sanguinalis
Method in brief: as §1

[14] = tested on: ABUTH; test: Post-emergence herbicidal action against ABUTH; assay type: in vivo, Abutilon theophrasti; conditions: visual assessment about 3 weeks after treatment vs untreated controls
Method in brief: (§2)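 Greenhouse plants in sandy loam were sprayed at the one-leaf stage, 2 to 3 weeks after sowing, with WP or EC formulations as aqueous suspension or emulsion (600 to 800 l/ha water, 0.2% wetting agent). Visual damage was scored about 3 weeks later versus untreated controls, 0% = like control, 100% = dead.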

[15] = tested on: ALOMY; test: Post-emergence herbicidal action against ALOMY; assay type: in vivo, Alopecurus myosuroides; conditions: visual assessment about 3 weeks after treatment vs untreated controls
Method in brief: as §2

[16] = tested on: AMARE; test: Post-emergence herbicidal action against AMARE; assay type: in vivo, Amaranthus retroflexus; conditions: 20 g/ha, visual assessment about 3 weeks after treatment, 100% = plants have died, 0% = like control plants
Method in brief: as §2

[17] = tested on: AVEFA; test: Post-emergence herbicidal action against AVEFA; assay type: in vivo, Avena fatua; conditions: visual assessment about 3 weeks after treatment, 100% = plants have died, 0% = like control plants
Method in brief: as §2

[18] = tested on: ECHCG; test: Post-emergence herbicidal action against ECHCG; assay type: in vivo, Echinochloa crus-galli
Method in brief: as §2

[19] = tested on: MATIN; test: Post-emergence herbicidal action against MATIN; assay type: in vivo, Matricaria inodora; conditions: dosage 20 g/ha
Method in brief: as §2

[20] = tested on: PHBPU; test: Post-emergence herbicidal action against PHBPU; assay type: in vivo, Pharbitis purpurea
Method in brief: as §2

[21] = tested on: SETVI; test: Post-emergence herbicidal action against SETVI; assay type: in vivo, Setaria viridis; conditions: dosage 20 g/ha
Method in brief: as §2

[22] = tested on: VERPE; test: Post-emergence herbicidal action against VERPE; assay type: in vivo, Veronica persica
Method in brief: as §2

[23] = tested on: VIOTR; test: Post-emergence herbicidal action against VIOTR; assay type: in vivo, Viola tricolor
Method in brief: as §2

[24] = tested on: DIGSA; test: Post-emergence herbicidal action against DIGSA; assay type: in vivo, Digitaria sanguinalis; conditions: for Post-emergence action against DIGSA: 20 g/ha
Method in brief: as §2

[25] = 20 g/ha, scored visually after 3 weeks vs untreated controls, 100% = plants have died, 0% = like control plants
[26] = 80 g/ha, scored visually after 3 weeks vs untreated controls (100% = plants have died, 0% = like control plants)

Structure (SMILES) | Pre-emergence action against ABUTH (herbicidal activity) [1] [%] | Pre-emergence action against ABUTH (herbicidal activity in percent) [1] [%] | Pre-emergence action against ALOMY (herbicidal activity) [2] [%] | Pre-emergence action against AMARE in % [3, 25] [%] | Pre-emergence action against AMARE in % [3, 26] [%] | Pre-emergence action against AVEFA in % [4] [%] | Pre-emergence action against ECHCG in % ([5]; 80 g/ha) [%] | Pre-emergence action against LOLRI in % [6] [%] | Pre-emergence action against MATIN in % ([7]; dosage 20 g/ha) [%] | Pre-emergence action against MATIN in % ([7]; dosage 80 g/ha) [%] | Pre-emergence action against PHBPU in % [8] [%] | Pre-emergence action against POLCO in % [9] [%] | Pre-emergence action against SETVI in % ([10]; dosage 80 g/ha) [%] | Pre-emergence action against VERPE in % [11] [%] | Pre-emergence action against VIOTR in % ([12]; dosage 20 g/ha) [%] | Pre-emergence action against VIOTR in % ([12]; dosage 80 g/ha) [%] | Pre-emergence action against DIGSA in % ([13]; dosage 20 g/ha) [%] | Pre-emergence action against DIGSA in % ([13]; dosage 80 g/ha) [%] | Post-emergence action against ABUTH in % ([14]; dosage 20 g/ha) [%] | Post-emergence action against ALOMY in % ([15]; dosage 5 g/ha) [%] | also measured
Cn1nnnc1NC(=O)c1ccc(C(F)(F)F)c(C(=O)NCC2CC2)c1Cl [Example 1-132] | 100 | 100 | 100 | 100 | 100 | 100 | 100 | 80 | 100 | 100 | 80 | 80 | 100 | 100 | 100 | 100 | 100 | 100 | 80 | 80 | Pre-emergence action against ALOMY ([2]; 20 g/ha, scored visually after 3 weeks, 100% = plants have died, 0% = like control plants): 80%; Pre-emergence action against ECHCG in % ([5]; 20 g/ha): 90%; Pre-emergence action against SETVI in % ([10]; dosage 20 g/ha): 80%; Post-emergence action against ALOMY in % ([15]; dosage 20 g/ha): 90%; Post-emergence action at 20 g/ha against AMARE in % [16]: 100%; Post-emergence action at 5 g/ha against AVEFA in % ([17]; 5 g/ha): 80%; Post-emergence action at 20 g/ha against AVEFA in % [17]: 90%; Post-emergence action against ECHCG in % ([18]; dosage 20 g/ha): 90%; Post-emergence action against MATIN in % [19]: 80%; Post-emergence action against PHBPU in % ([20]; dosage 20 g/ha): 90%; Post-emergence action against SETVI in % [21]: 90%; Post-emergence action against VERPE in % ([22]; 5 g/ha): 90%; Post-emergence action against VERPE in % ([22]; 20 g/ha): 90%; Post-emergence action against VIOTR in % ([23]; 5 g/ha): 80%; Post-emergence action against VIOTR in % ([23]; 20 g/ha): 90%; Post-emergence action against DIGSA [24]: 90%
CCn1nnnc1NC(=O)c1ccc(C(F)F)c(C(=O)NCC2CC2)c1C [Example 2-47] | 100 | 100 | 100 | 100 | 100 | 80 | 100 | 80 | 100 | 100 | 90 | 80 | 100 | 100 | 80 | 100 | 100 | 100 | 90 | 80 | Post-emergence action against ABUTH in % ([14]; dosage 5 g/ha): 90% and 80%; Post-emergence action against ALOMY in % ([15]; dosage 20 g/ha): 90%; Post-emergence action at 20 g/ha against AMARE in % [16]: 90% and 100%; Post-emergence action at 20 g/ha against AVEFA in % [17]: 80%; Post-emergence action against ECHCG in % ([18]; dosage 5 g/ha): 80%; Post-emergence action against ECHCG in % ([18]; dosage 20 g/ha): 90% and 80%; Post-emergence action against MATIN in % [19]: 80%; Post-emergence action against PHBPU in % ([20]; dosage 5 g/ha): 80%; Post-emergence action against PHBPU in % ([20]; dosage 20 g/ha): 90%; Post-emergence action against SETVI in % [21]: 90%; Post-emergence action against VERPE in % ([22]; 20 g/ha): 80%; Post-emergence action against VIOTR in % ([23]; 5 g/ha): 80%; Post-emergence action against VIOTR in % ([23]; 20 g/ha): 90% and 80%; Post-emergence action against DIGSA in % ([24]; 5 g/ha): 90%; Post-emergence action against DIGSA [24]: 90%
